Read-outs that look alike come from different tables or passages of the source.
Columns and labels:
[1] = test system: human colorectal cancer cell line HT29; test: In vitro anti-cancer cell experiment (MTT), colorectal cancer HT29; format: cell-based
Description: (§1) Cell lines: Human pancreatic cancer cell line Panc-1, human colorectal cancer cell line HT29, human lung cancer cell line NCI-H460 and human breast cancer cell line MCF7; the medium: s DMEM (Gibco BRL), containing 10% fetal calf serum (Gibco BRL) and 2 mM L-glutamine (Gibco BRL).
(§2) The samples were dissolved in dimethyl sulfoxide (DMSO, Sigma, United States) and medium was added to the final concentration of 0.5%. cyclophosphamide was as positive control (CTX, purity>96%).
(§3) Method: cells were digested with trypsin and dispersed into single cells in the medium containing penicillin (25 U/ml) and streptomycin (25 μg/ml). The cells were seeded in 96-well culture plates (Corning Incorporated), at 37° C., with 5% CO2 present for 24 hours. The culture medium was removed, 1-100 μm test compounds were added, cultured for 48 hours. Culture medium was removed and […] (MTT, USA Sigma products) was added. The result was assayed by SK601-based microplate reader (Japan Seikagaku company's products), 570 nm/630 nm optical density (OD). Cell viability determined by the formula: (Experimental group OD/control OD)×100%; CDDP and the positive control subjects treated in the same material simultaneously.

[2] = test system: Human pancreatic cancer cell line Panc-1; test: In vitro anti-cancer cell experiment (MTT), pancreatic cancer Panc-1; format: cell-based
Description: as §1, §2, §3

[3] = test system: human lung cancer cell line NCI-H460; test: In vitro anti-cancer cell experiment (MTT), lung cancer NCI-H460; format: cell-based
Description: as §1, §2, §3

[4] = test system: human breast cancer cell line MCF7; test: In vitro anti-cancer cell experiment (MTT), breast cancer MCF7; format: cell-based
Description: as §1, §2, §3

mice sarcoma S180 = test: Inhibition of the sarcoma growth S180 in mice; format: in vivo; conditions: for inhibition rate compared with positive control 5-FU / inhibition compared with positive control cyclophosphamide: by tumor weight, seven days; for anti-tumor efficacy in vivo: iv
Description: Tumor strains: mice sarcoma S180 for ascites passaged from Beijing Academy of Military Medical Institute of Pharmacology.
(§4) Xenografts cultured S180 tumor cells were implanted subcutaneously into the flank region of mice and tumors were allowed to grow to the desired average size of 100 mg. The mice were randomized into control and treatment groups with 10 mice per group. The control group was injected with the vehicle used to dissolve the drug. […] Injections were I.V. via the tailvein.
(§5) The test group inoculated tumor cells […] in mice armpit, administration and observation of seven days.

[5] = Body weight of S180 tumor-bearing mice
Description: as §4, §5

[6] = HT-29, HT29 cells, 48 hours, MTT, value (95% confidence limits), read-out: IC50 and 95% confidence limit, anti-proliferative effect on HT29
[7] = HT-29 cells, 48 hours, MTT, read-out: IC50 Colorectal cancer HT-29
[8] = Panc-1 cells, 48 hours, MTT, read-out: IC50 Pancreatic cancer Panc-1
[9] = Panc-1 cells, 48 hours, MTT, value (95% confidence limits), read-out: IC50 and 95% confidence limits, anti-proliferative effect on Panc-1
[10] = NCI-H460 cells, 48 hours, MTT, read-out: IC50 Lung cancer NCI-H460
[11] = NCI-H460 cells, 48 hours, MTT, value (95% confidence limits), unit given only for CTX, read-out: IC50 and 95% confidence limits, inhibitory effect on lung cancer NCI-H460 cells
[12] = MCF7 cells, 48 hours, MTT, read-out: IC50 Breast cancer MCF7
[13] = MCF7 cells, 48 hours, MTT, value (95% confidence limits), unit given only for CTX, read-out: IC50 with 95% confidence limits, inhibitory effect on breast cancer MCF7 cells
[14] = MCF7, 48 h, read-out: IC50 with 95% confidence limits, inhibitory effect on breast cancer MCF7 cells

Row | IC50 [1, 6] [µg/mL] | IC50 [1, 7] [µM] | IC50 [2, 8] [µM] | IC50 [2, 9] [µg/mL] | IC50 [3, 10] [µM] | IC50 [3, 11] [µg/mL] | IC50 [4, 12] [µM] | IC50 [4, 13] [µg/mL] | SMILES | inhibition rate compared with positive control 5-FU (mice sarcoma S180) | anti-tumor efficacy in vivo (mice sarcoma S180) | body Weight/g After ad. ([5]; mouse, in vivo, iv) [g] | body Weight/g Before ad. ([5]; mouse, in vivo, iv) [g] | inhibition compared with positive control cyclophosphamide (mice sarcoma S180) | further results
1 | 10.2 | 10.2 | 10 | 10 | 8.52 | 8.52 | 67.5 | 67.5 | CN(C)CCOCC(=O)NC12CC3CC(CC(C3)C1)C2 [Compound 4, Tromantadine] | better than the positive control group, 5-FU | statistically significant | 28.64 ± 4.13 | 21.03 ± 0.29 |  | 
2 |  |  |  |  |  |  |  |  | O=c1[nH]cc(F)c(=O)[nH]1 [Compound 5-FU, 5-fluorouracil] |  |  | 29.16 ± 2.50 | 21.61 ± 1.56 |  | 
3 | 0.85 | 0.85 | 2.17 | 2.17 | 2.81 | 2.81 |  |  | COc1ccc(-c2ccc3cc(C(=O)O)ccc3c2)cc1C12CC3CC(CC(C3)C1)C2 [Compound 5, Adapalene] | better than the positive control group, 5-FU | statistically significant | 20.80 ± 3.61 | 20.27 ± 1.80 | significantly better than the positive control group of cyclophosphamide | 
4 |  |  |  |  |  |  |  |  | O=P1(N(CCCl)CCCl)NCCCO1 (centres unmarked) [CTX, cyclophosphamide] |  |  |  |  |  | IC50 ([1]; HT-29, 48 h, read-out: IC50 Colorectal cancer HT-29): 2.26 µM; IC50 ([1]; HT-29, 48 h, read-out: IC50 and 95% confidence limit, anti-proliferative effect on HT29): 2.26 µg/mL; IC50 ([2]; PANC-1, 48 h, read-out: IC50 Pancreatic cancer Panc-1): 2.23 µM; IC50 ([2]; PANC-1, 48 h, read-out: IC50 and 95% confidence limits, anti-proliferative effect on Panc-1): 2.23 µg/mL; IC50 ([3]; NCI-H460, 48 h, read-out: IC50 Lung cancer NCI-H460): 4.3 µM; IC50 ([3]; NCI-H460, 48 h, read-out: IC50 and 95% confidence limits, inhibitory effect on lung cancer NCI-H460 cells): 4.3 µg/mL; IC50 ([4]; MCF7, 48 h, read-out: IC50 Breast cancer MCF7): 0.92 µM; IC50 [4, 14]: 0.92 µg/mL; body Weight/g After ad. ([5]; after administration, iv, seven days, X ± SD): 28.22 ± 2.46 g; body Weight/g Before ad. ([5]; before administration (baseline), iv groups, X ± SD): 22.45 ± 0.79 g
5 | 13.1 | 13.1 | 53 | 53 | 60.5 | 60.5 | 34.3 | 34.3 | CC12CC3CC(C)(C1)CC(N)(C3)C2 [Compound 3, Memantine] | better than the positive control group, 5-FU | statistically significant | 28.98 ± 1.74 | 21.31 ± 1.53 | significantly better than the positive control group of cyclophosphamide | 
6 | 3.92 | 3.92 | 2.42 | 2.42 | 22 | 22 | 2.73 | 2.73 | CC(N)C12CC3CC(CC(C3)C1)C2 (centres unmarked) [Compound 2, Rimantadine] | better than the positive control group, 5-FU | statistically significant | 26.02 ± 3.69 | 19.35 ± 0.95 | significantly better than the positive control group of cyclophosphamide | 
7 |  |  | 53.5 | 53.5 |  |  |  |  | O=C1C2CC3CC1CC(O)(C3)C2 [Compound 6, Idramantone] |  | statistically significant | 26.30 ± 3.62 | 19.92 ± 1.47 |  | 

Row | SMILES | IC50 [1, 6] [µg/mL] | IC50 [1, 7] [µM] | IC50 [2, 8] [µM] | IC50 [2, 9] [µg/mL] | IC50 [3, 10] [µM] | IC50 [3, 11] [µg/mL] | IC50 [4, 12] [µM] | IC50 [4, 13] [µg/mL] | inhibition rate compared with positive control 5-FU (mice sarcoma S180) | anti-tumor efficacy in vivo (mice sarcoma S180) | body Weight/g After ad. ([5]; mouse, in vivo, iv) [g] | body Weight/g Before ad. ([5]; mouse, in vivo, iv) [g] | inhibition compared with positive control cyclophosphamide (mice sarcoma S180) | further results
8 | NC12CC3CC(CC(C3)C1)C2 [Compound 1, Amantadine] | 18.8 | 18.8 | 51.3 | 51.3 | 5.18 | 5.18 | 6.18 |  |  | statistically significant | 27.93 ± 3.37 | 21.41 ± 2.52 |  | IC50 [4, 14]: 6.18 µg/mL

From patent US20130072553A1, “DRUGS, DERIVATIVES AND ANALOGS CONTAINING ADAMANTANE STRUCTURES OF NEW INDICATION APPLICATIONS OF ANTI-TUMOR” (priority 2009, published 2013)
